Laboratory results as given in patent publication US20150175681A1 (priority 2010, published 2015).

Assays:
Format in all cases: in vivo
[1] = tested on: C. difficile (ATCC 43596); settings: Example 5C
[2] = tested on: C. difficile (ATCC 43596, strain 545)
[3] = tested on: C. difficile (ATCC 43596 strain); settings: Example 5B
[4] = Example 5E, vancomycin 20 mg/kg
[5] = Example 5E, vancomycin 20 mg/kg BID × 5 days

## CN[C@H](CC(C)C)C(=O)N[C@H]1C(=O)N[C@@H](CC(N)=O)C(=O)N[C@H]2C(=O)N[C@H]3C(=O)N[C@H](C(=O)N[C@H](C(=O)O)c4cc(O)cc(O)c4-c4cc3ccc4O)[C@H](O)c3ccc(c(Cl)c3)Oc3cc2cc(c3O[C@@H]2O[C@H](CO)[C@@H](O)[C@H](O)[C@H]2O[C@H]2C[C@](C)(N)[C@H](O)[C@H](C)O2)Oc2ccc(cc2Cl)[C@H]1O [Vancomycin]
[1]; 40 days, vancomycin 20 mg/kg PO BID × 5 days, mAbs 50 mg/kg (combination 50, 50) IP Q2d × 4, 7 hamsters
  % mortality: 100%
[1]; doses as Table 4
  number of hamster deaths, day of study 12: 1
  number of hamster deaths, day of study 14: 2
  number of hamster deaths, day of study 15: 1
  number of hamster deaths, day of study 18: 1
  number of hamster deaths, day of study 19: 2
[2]; Example 5E, to day 39
  mean body weights over the study: decreased during the first week post-infection and then rebounded
[2]; [4]
  Day 40 Survival: 0%
  Median Survival: 20 days
[2]; [5]
  % mortality: 100%
  number of hamster deaths, day of study 11 to 14: 1
  number of hamster deaths, day of study 18 to 20: 5
  number of hamster deaths, day of study 22: 2
[2]; in vivo
  cecal C. difficile, mean CFU: 6.01±0.93 log10
[3]; 37 days, vancomycin 20 mg/kg PO BID × 5 days, goat polyclonal Abs 1 mL/hamster, PA-38 + PA-41 50, 50 mg/kg, PA-39 + PA-41 50, 40 mg/kg IP Q2d × 4
  % mortality: 88%
[3]; doses as Table 2, 8 animals
  number of hamster deaths, day of study 15: 1
  number of hamster deaths, day of study 18: 5
  number of hamster deaths, day of study 19: 1
[3]; first week after infection
  mean body weights: declined significantly during the first week after infection
[3]; vancomycin 20 mg/kg BID Days 1-5
  hamsters found dead between Days 15 and 19: seven of eight
